Values quoted from earlier work, collected in patent US20140045904A1, “NIACIN FORMULATIONS AND METHODS WITH REDUCED FLUSHING SIDE EFFECT” (priority 2010, published 2014).

Assays:
[1] = system: niacin-induced flushing; settings: rofecoxib: single dose of 500 mg immediate-release niacin; laropiprant: clinical trials; aspirin: oral niacin
[2] = system: rat macrophages; settings: dual inhibitor of COX-1 and COX-2
[3] = system: prostacyclin (PGI-2); settings: ingestion of oral niacin
[4] = system: PGD-2; settings: niacin given orally (500 mg)
[5] = system: HDL cholesterol; settings: low doses of niacin (300-1,000 mg/day)
[6] = biological target: COX-2 (Homo sapiens, UniProt P35354); settings: while sparing COX-1
Chain of COX-2 (P35354 18-604): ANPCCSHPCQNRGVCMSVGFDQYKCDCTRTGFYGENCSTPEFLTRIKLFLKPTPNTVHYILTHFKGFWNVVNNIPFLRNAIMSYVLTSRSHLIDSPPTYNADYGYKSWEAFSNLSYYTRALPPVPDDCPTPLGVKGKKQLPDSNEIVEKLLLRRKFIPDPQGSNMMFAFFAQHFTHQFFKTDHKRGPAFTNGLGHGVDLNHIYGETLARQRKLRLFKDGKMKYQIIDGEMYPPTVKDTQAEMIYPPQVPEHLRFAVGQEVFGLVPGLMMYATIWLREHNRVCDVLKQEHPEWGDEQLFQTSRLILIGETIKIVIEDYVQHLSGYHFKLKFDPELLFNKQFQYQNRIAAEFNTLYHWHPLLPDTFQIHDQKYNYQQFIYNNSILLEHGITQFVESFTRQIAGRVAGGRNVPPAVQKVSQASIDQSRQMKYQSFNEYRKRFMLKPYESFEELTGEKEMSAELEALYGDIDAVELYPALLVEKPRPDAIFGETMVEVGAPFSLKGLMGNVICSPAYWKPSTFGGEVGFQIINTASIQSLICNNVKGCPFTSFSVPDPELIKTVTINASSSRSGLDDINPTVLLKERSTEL

CC(=O)Oc1ccccc1C(=O)O [aspirin]
effect of pretreatment on flushing from niacin [1]: can suppress the flush

COc1ccc2c(c1)c(CC(=O)O)c(C)n2C(=O)c1ccc(Cl)cc1 [indomethacin]
endogenous production of PGE-2 and PGD-2 [2]: suppressed

CS(=O)(=O)c1cc(F)cc2c3c(n(Cc4ccc(Cl)cc4)c12)[C@@H](CC(=O)O)CC3 [laropiprant]
effect of pretreatment on flushing from niacin [1]: substantially reduced, but fell far short of eliminating

O=C(O)c1cccnc1 [niacin, pyridine-3-carboxylic acid]
increase in prostacyclin (PGI-2) [3]: 2 fold | major urinary metabolite of PGE-2 (PGE-M) [3]: does not increase | increase of levels of the major metabolite of PGD-2 [4]: 400 to 800 fold | time to decline of PGD-2 metabolite to near normal levels [4]: 2 to 4 h | time to increase of PGD-2 metabolite after ingestion [4]: 12 to 45 min | raise of HDL cholesterol [5]: up to 45%

CS(=O)(=O)c1ccc(C2=C(c3ccccc3)C(=O)OC2)cc1 [rofecoxib]
effect of pretreatment on flushing from niacin [1]: did not result in a reduction of flushing | inhibition of COX-2 in vivo [6]: about 90%
